From patent US12209145B2, “PCSK9 antagonist compounds” (Merck Sharp & Dohme LLC, priority 2018, dated 2025)

Columns and labels:
PCSK9 [1] = target: T1, PCSK9 (Homo sapiens, UniProt Q8NBP7); experiment: PCSK9 Alexa FRET Ultra TR-FRET assay (displacement of AlexaFluor647 tagged cyclic peptide); type: binding; conditions: 0.5 nM biotinylated PCSK9, 960 nM AF cyclic peptide, Ki calculated from IC50 and KD of AF peptide
T1 construct: Biotinylated PCSK9 was obtained commercially; purchased
Description: (§1) The following is a description of the assays used to determine activity of compounds of the invention, and any comparator compounds reported, toward PCSK9 antagonism. Biotinylated PCSK9 was obtained commercially.
A solution containing 1 nM biotinylated PCSK9+2.5 nM Lance Streptavidin Europium (Strep-Eu) is made in 50 mM HEPES pH 7.4, 0.15 M NaCl, 5 mM CaCl2, 0.01% BSA, and 0.01% Surfactant P20. A separate solution containing 1920 nM of the AlexaFluor tagged cyclic peptide is made in the same buffer system. An Echo is used to transfer 0.015 ul of compound plus 0.735 ul of DMSO to each well of an assay plate followed by the addition of 15 ul of PCSK9+Stept-Eu and 15 ul of AF peptide. The final assay volume is 30.750 ul containing 0.5 nM PCSK9, 1.25 nM Strep-Eu, and 960 nM AF cyclic peptide. The reaction is incubated at room temperature for at least two hours prior to fluorescence measurements using an Envision Multilabel Reader. IC50 values are determined by fitting data to a sigmoidal dose-response curve using nonlinear regression. Ki is then calculated from the IC50 and the KD of AF cyclic peptide. Counts (B-counts) of the europium-labeled PCSK9 are followed to observe if compounds are adversely affecting PCSK9. A fall off of the B-counts is likely indicates a false positive of inhibition. Data from this procedure is reported as “Ki Ultra=‘numerical value’ (data reported is nanomolar)”

PCSK9 [2] = target: T1, PCSK9; experiment: PCSK9 Alexa FRET Plus TR-FRET assay (displacement of AlexaFluor647 tagged cyclic peptide Reagent B); type: binding; conditions: 0.5 nM biotinylated PCSK9, 960 nM AF cyclic peptide Reagent B, Ki calculated from IC50 and KD of AF peptide
Description: as §1
A solution containing 1 nM biotinylated PCSK9+2.5 nM Lance Streptavidin Europium (Strep-Eu) is made in 50 mM HEPES pH 7.4, 0.15 M NaCl, 5 mM CaCl2, 0.01% BSA, and 0.01% Surfactant P20. A separate solution containing 1920 nM of the AlexaFluor tagged cyclic peptide is made in the same buffer system. An Echo is used to transfer 0.075 ul of compound plus 0.675 ul of DMSO to each well of an assay plate followed by the addition of 15 ul of PCSK9+Stept-Eu and 15 ul of AF peptide. The final assay volume is 30.750 ul containing 0.5 nM PCSK9, 1.25 nM Strep-Eu, and 960 nM AF cyclic peptide. The reaction is incubated at room temperature for at least two hours prior to fluorescence measurements using an Envision Multilabel Reader. IC50 values are determined by fitting data to a sigmoidal dose-response curve using nonlinear regression. Ki is then calculated from the IC50 and the KD of AF cyclic peptide. Counts (B-counts) of the europium-labeled PCSK9 are followed to observe if compounds are adversely affecting PCSK9. A fall off of the B-counts is likely indicates a false positive of inhibition. Data from this procedure is reported as “P=‘numerical value’ (nanomolar)”
Activity data obtained by one or both of the above-described procedures is reported for selected example compounds of the invention in the following format: Example No.: A (standard TR Fret)=‘numerical value’; P (Alexa Fret plus standard TR Fret)=‘numerical value’/, note that all values reported are nanomolar.

T1 sequence (Q8NBP7 153-692): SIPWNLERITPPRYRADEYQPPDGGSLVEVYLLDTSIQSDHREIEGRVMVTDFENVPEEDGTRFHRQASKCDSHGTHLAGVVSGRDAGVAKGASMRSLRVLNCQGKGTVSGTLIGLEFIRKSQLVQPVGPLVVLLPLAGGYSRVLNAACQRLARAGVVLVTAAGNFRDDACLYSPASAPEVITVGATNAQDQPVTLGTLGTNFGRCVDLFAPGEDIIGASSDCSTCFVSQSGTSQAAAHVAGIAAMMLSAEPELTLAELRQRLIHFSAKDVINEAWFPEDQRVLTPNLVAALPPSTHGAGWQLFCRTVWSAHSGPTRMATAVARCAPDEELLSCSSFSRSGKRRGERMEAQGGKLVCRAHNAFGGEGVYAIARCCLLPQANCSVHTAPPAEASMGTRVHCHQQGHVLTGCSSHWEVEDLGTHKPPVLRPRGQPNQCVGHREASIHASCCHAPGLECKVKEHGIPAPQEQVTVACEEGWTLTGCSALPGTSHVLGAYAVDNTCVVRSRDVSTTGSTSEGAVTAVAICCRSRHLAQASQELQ

Row | Ki (PCSK9 [1]; read-out: Ki Ultra) | Ki (PCSK9 [2]; read-out: Ki Plus) | Compound | Ki (PCSK9 [1]; Ki Ultra) | Ki (PCSK9 [2]; Ki Plus)
1 | 2.8 pM | ≤ 5.58 pM | COc1ccc(C[C@@H]2NC(=O)[C@H]([C@@H](C)O)NC(=O)[C@@H]3[C@@H]4CCN3C(=O)[C@@H]3Cc5cn(c6ccc(F)cc56)CCCCCN(Cc5ccc(cc5)CCNC(=O)[C@]5(C)CCCN5C2=O)C(=O)CCC(=O)N[C@@H](C)C(=O)N[C@H](CNC(=O)CCOCCOCC[N+](C)(C)C)C(=O)N[C@@H](Cc2cccc(c2)CNC(=O)CO4)C(=O)N3)cc1 [Ex-17] | – | –
2 | – | – | COc1ccc(C[C@@H]2NC(=O)[C@H]([C@@H](C)O)NC(=O)[C@@H]3[C@@H]4CCN3C(=O)[C@@H]3Cc5cn(c6ccc(F)cc56)CCCCCCN(Cc5ccc(cc5)CCNC(=O)[C@]5(C)CCCN5C2=O)C(=O)CCCC(=O)N[C@H](CNC(=O)CCOCCOCC[N+](C)(C)C)C(=O)N[C@@H](Cc2cccc(c2)CNC(=O)CO4)C(=O)N3)cc1 [Ex-18] | 118 pM | 33.6 pM
3 | 12 pM | 16.6 pM | COc1ccc(C[C@@H]2NC(=O)[C@H]([C@@H](C)O)NC(=O)[C@@H]3[C@@H]4CCN3C(=O)[C@@H]3Cc5cn(c6ccc(F)cc56)CCCCCCN(Cc5ccc(cc5)CCNC(=O)[C@]5(C)CCCN5C2=O)C(=O)CCC(=O)N[C@H]2CN(C(=O)CCOCCOCC[N+](C)(C)C)CCCCC(=O)NC[C@@H](NC2=O)C(=O)N[C@@H](Cc2cccc(c2)CNC(=O)CO4)C(=O)N3)cc1 [Ex-19] | – | –
4 | 17.1 pM | 13 pM | COc1ccc(C[C@@H]2NC(=O)[C@H]([C@@H](C)O)NC(=O)[C@@H]3[C@@H]4CCN3C(=O)[C@@H]3Cc5cn(c6ccc(F)cc56)CCCCCCN(Cc5ccc(cc5)CCNC(=O)[C@]5(C)CCCN5C2=O)C(=O)CCCCC(=O)N[C@H](CNC(=O)CCOCCOCC[N+](C)(C)C)C(=O)N[C@@H](Cc2cccc(c2)CNC(=O)CO4)C(=O)N3)cc1 [Ex-20] | – | –
5 | – | – | COc1ccc(C[C@@H]2NC(=O)[C@H]([C@@H](C)O)NC(=O)[C@@H]3[C@@H]4CCN3C(=O)[C@@H]3Cc5cn(c6ccc(F)cc56)CCCCCCN(Cc5ccc(cc5)CCNC(=O)[C@]5(C)CCCN5C2=O)C(=O)CCCCCC(=O)N[C@H](CNC(=O)CCOCCOCC[N+](C)(C)C)C(=O)N[C@@H](Cc2cccc(c2)CNC(=O)CO4)C(=O)N3)cc1 [Ex-21] | 1.26 pM | 5.69 pM
6 | 15.2 pM | 9.26 pM | COc1ccc(C[C@@H]2NC(=O)[C@H]([C@@H](C)O)NC(=O)[C@@H]3[C@@H]4CCN3C(=O)[C@@H]3Cc5cn(c6ccc(F)cc56)CCCCCCN(Cc5ccc(cc5)CCNC(=O)[C@]5(C)CCCN5C2=O)C(=O)CCC(=O)N[C@@H](CNC(=O)CCOCCOCC[N+](C)(C)C)C(=O)N[C@H](C)C(=O)N[C@@H](Cc2cccc(c2)CNC(=O)CO4)C(=O)N3)cc1 [Ex-22] | – | –
7 | 2.39 pM | 9.38 pM | COc1ccc(C[C@@H]2NC(=O)[C@H]([C@@H](C)O)NC(=O)[C@@H]3[C@@H]4CCN3C(=O)[C@@H]3Cc5cn(c6ccc(F)cc56)CCCCCCN(Cc5ccc(cc5)CCNC(=O)[C@]5(C)CCCN5C2=O)C(=O)CCC(=O)N[C@@H](C)C(=O)N[C@H](CNC(=O)CCC(=O)NC2OC(CO)C(O)C(O)C2O)C(=O)N[C@@H](Cc2cccc(c2)CNC(=O)CO4)C(=O)N3)cc1 (stereo partly drawn) [Ex-23] | – | –
8 | 2.75 pM | ≤ 5.58 pM | COc1ccc(C[C@@H]2NC(=O)[C@H]([C@@H](C)O)NC(=O)[C@@H]3C4CCN3C(=O)[C@@H]3Cc5cn(c6ccc(F)cc56)CCCCN(Cc5ccc(cc5)CCNC(=O)[C@]5(C)CCCN5C2=O)C(=O)CCCCCC(=O)N[C@H](CNC(=O)CCC(=O)NC2OC(CO)C(O)C(O)C2O)C(=O)N[C@@H](Cc2cccc(c2)CNC(=O)CO4)C(=O)N3)cc1 (stereo partly drawn) [Ex-26] | – | –
9 | 3.01 pM | 5.58 pM | COc1ccc(C[C@@H]2NC(=O)[C@H]([C@@H](C)O)NC(=O)[C@@H]3[C@@H]4CCN3C(=O)[C@@H]3Cc5cn(c6ccc(F)cc56)CCCCN(Cc5ccc(cc5)CCNC(=O)[C@]5(C)CCCN5C2=O)C(=O)CCC(=O)N[C@@H](C)C(=O)N[C@H](CNC(=O)CCC(=O)NC2OC(CO)C(O)C(O)C2O)C(=O)N[C@@H](Cc2cccc(c2)CNC(=O)CO4)C(=O)N3)cc1 (stereo partly drawn) [Ex-27] | – | –
10 | 6.14 pM | 9.81 pM | COc1ccc(C[C@@H]2NC(=O)[C@H]([C@@H](C)O)NC(=O)[C@@H]3[C@@H]4CCN3C(=O)[C@@H]3Cc5cn(c6ccc(F)cc56)C/C=C/CN(Cc5ccc(cc5)CCNC(=O)[C@]5(C)CCCN5C2=O)C(=O)CCC(=O)N[C@@H](C)C(=O)N[C@H](CNC(=O)CCOCCOCC[N+](C)(C)C)C(=O)N[C@@H](Cc2cccc(c2)CNC(=O)CO4)C(=O)N3)cc1 [Ex-29] | – | –
11 | – | – | COc1ccc(C[C@@H]2NC(=O)[C@H]([C@@H](C)O)NC(=O)[C@@H]3[C@@H]4CCN3C(=O)[C@@H]3Cc5cn(c6ccccc56)CCCCCCN(Cc5ccc(cc5)CCNC(=O)[C@]5(C)CCCN5C2=O)C(=O)CCC(=O)N[C@@H](C)C(=O)N[C@H](CNC(=O)CCCCC[N+](C)(C)C)C(=O)N[C@@H](Cc2cccc(c2)CNC(=O)CO4)C(=O)N3)cc1 [Ex-35] | 84.3 pM | 46.5 pM
12 | – | – | COc1ccc(C[C@@H]2NC(=O)[C@H](C)NC(=O)[C@@H]3[C@@H]4CCN3C(=O)[C@@H]3Cc5cn(c6ccc(F)cc56)CCCCCCN(Cc5ccc(cc5)CCNC(=O)[C@]5(C)CCCN5C2=O)C(=O)CCC(=O)N[C@@H](C)C(=O)N[C@H](CNC(=O)CCCCC[N+](C)(C)C)C(=O)N[C@@H](Cc2cccc(c2)CNC(=O)CO4)C(=O)N3)cc1 [Ex-36] | 5.07 pM | 7.62 pM
13 | – | – | COc1ccc(C[C@@H]2NC(=O)[C@H]([C@@H](C)O)NC(=O)[C@@H]3[C@@H]4CCN3C(=O)[C@@H]3Cc5cn(c6ccc(F)cc56)CCCCC[C@@H](NC(=O)CCC(=O)N[C@@H](C)C(=O)N[C@H](CNC(=O)CCCCC[N+](C)(C)C)C(=O)N[C@@H](Cc5cccc(c5)CNC(=O)CO4)C(=O)N3)c3ccc(cc3)CCNC(=O)[C@]3(C)CCCN3C2=O)cc1 [Ex-38] | 14.2 pM | 9.04 pM
14 | – | – | COc1ccc(C[C@@H]2NC(=O)[C@H]([C@@H](C)O)NC(=O)[C@@H]3[C@@H]4CCN3C(=O)[C@@H]3Cc5cn(c6ccc(F)cc56)CCCCCOCc5cc(ccc5CNC(=O)CCC(=O)N[C@@H](C)C(=O)N[C@H](CNC(=O)CCCCC[N+](C)(C)C)C(=O)N[C@@H](Cc5cccc(c5)CNC(=O)CO4)C(=O)N3)CCNC(=O)[C@]3(C)CCCN3C2=O)cc1 [Ex-39] | 4.14 pM | 7.16 pM
15 | – | – | COc1ccc(C[C@@H]2NC(=O)[C@H]([C@@H](C)O)NC(=O)[C@@H]3[C@@H]4CCN3C(=O)[C@@H]3Cc5cn(c6ccc(F)cc56)CCCCOc5cc(cc(c5)CNC(=O)CCC(=O)N[C@@H](C)C(=O)N[C@H](CNC(=O)CCCCC[N+](C)(C)C)C(=O)N[C@@H](Cc5cccc(c5)CNC(=O)CO4)C(=O)N3)CCNC(=O)[C@]3(C)CCCN3C2=O)cc1 [Ex-40] | 860 pM | 308 pM
16 | – | – | COc1ccc(C[C@@H]2NC(=O)[C@H]([C@@H](C)O)NC(=O)[C@@H]3[C@@H]4CCN3C(=O)[C@@H]3Cc5cn(c6ccc(F)cc56)CCCCCN(CCOc5ccc(cc5)CCNC(=O)[C@]5(C)CCCN5C2=O)C(=O)CCC(=O)N[C@@H](C)C(=O)N[C@H](CNC(=O)CCCCC[N+](C)(C)C)C(=O)N[C@@H](Cc2cccc(c2)CNC(=O)CO4)C(=O)N3)cc1 [Ex-41] | 6.28 pM | 6.97 pM
17 | – | – | COc1ccc(C[C@@H]2NC(=O)[C@H]([C@@H](C)O)NC(=O)[C@@H]3[C@@H]4CCN3C(=O)[C@@H]3Cc5cn(c6ccc(F)cc56)CCCCCCN(Cc5cccc(c5)CCNC(=O)[C@]5(C)CCCN5C2=O)C(=O)CCC(=O)N[C@@H](C)C(=O)N[C@H](CNC(=O)CCCCC[N+](C)(C)C)C(=O)N[C@@H](Cc2cccc(c2)CNC(=O)CO4)C(=O)N3)cc1 [Ex-44] | 21.9 pM | 14.5 pM

Row | Compound | Ki (PCSK9 [1]; read-out: Ki Ultra) | Ki (PCSK9 [2]; read-out: Ki Plus) | Ki (PCSK9 [1]; Ki Ultra) | Ki (PCSK9 [2]; Ki Plus)
18 | COc1ccc(C[C@@H]2NC(=O)[C@H]([C@@H](C)O)NC(=O)[C@@H]3[C@@H]4CCN3C(=O)[C@@H]3Cc5cn(c6ccc(F)cc56)CCCCCCN(Cc5ccc(cc5)CCNC(=O)[C@]5(C)CCCN5C2=O)C(=O)CCC(=O)N[C@@H](C)C(=O)N[C@H](CNC(=O)CCCCC[N+](C)(C)C)C(=O)N[C@@H](Cc2cccc(c2)CNC(=O)CO4)C(=O)N3)cc1 [Ex-25] | – | 11.3 pM | 4.63 pM | –
